Columns and labels:
[1] = test system: omega-amino acid transaminase; assay: relative rates of conversion of different chiral amines by soluble enzymatic preparations; format: biochemical; details: for conversion to the nonchiral ketone by the transaminase: racemate subjected to the enzyme
Protocol: (§1) Enzyme Activity: Enzyme activity is expressed herein as units/mg. A unit of enzyme activity is defined as that which produces 1 micromole of ketone per minute. For uniformity, this is measured as micromoles of 1-phenylbutan-3-one formed from R,S-1-phenyl-3-aminobutane. The following standardized assay was utilized to measure the activity of the omega-amino acid transaminases set forth in the examples which follow.
(§2) A known volume of the enzyme preparation to be tested is incubated at 37° C. and pH 7 in a solution having the following composition:
(§3) A sample is removed and 20% by volume of 12% aqueous trichloroacetic acid are added. Precipitated protein is removed by centrifugation and the concentration of 1-phenylbutan-3-one in the supernatant is determined by liquid chromatography on a 100×8 mm 4 micron Novopak phenyl column eluting with 40% isopropanol and 0.09% phosphoric acid in water. Under these conditions, 1-phenylbutan-3-one elutes at 5.3 minutes.
The following procedure exemplifies the relative rates of conversion, determined directly or calculated from kinetic data, of different chiral amines by soluble enzymatic preparations utilizing the assay described above but substituting the indicated chiral amine.

Bacillus megaterium = assay: induction of omega-amino acid transaminase production by addition of an amine to cultures; format: cell-based; details: 2 mM amine inducer, 30 to 40 hours; for Specific Activity (units/mg) Acetate: 40 mM acetate as carbon source; for Specific Activity (units/mg) Succinate: 40 mM succinate as carbon source
Protocol: as §1, §2, §3
Enzyme Recovery: Unless otherwise indicated, cells from culture are centrifuged for 10 minutes at 10,000 G, resuspended in 10 mM of phosphate buffer at pH 7 and 0.5 mM of pyridoxal phosphate, and ruptured by two passes through a chilled French press operating at 15,000 psi. Cell debris is removed by centrifugation for one hour at 10,000 G and the enzyme-containing supernatant collected.
The following procedure exemplifies the growth of microorganisms using ammonium as the sole nitrogen source and then inducing omega-amino acid transaminase production by the addition of an amine.
Bacillus megaterium was grown in 1 L cultures in the standard salt medium supplemented with 40 mM of the indicated carbon source, 5 mM of ammonium chloride, 80 mM of phosphate buffer, and 2 mM of the amine inducer indicated below. After 30 to 40 hours, the enzyme was collected and assayed as described above.

β-alanine transaminase = details: relative activities, Nakano et al. 1977; cited from earlier work
[2] = test system: -aminobutyrate transaminase; details: relative activities, Nakano et al. 1977; cited from earlier work
[3] = test system: omega-amino acid transaminase; assay: standardized omega-amino acid transaminase activity assay (1-phenylbutan-3-one formed from R,S-1-phenyl-3-aminobutane), B. megaterium enzyme; format: biochemical, Bacillus megaterium
Protocol: as §1, §2, §3
(§4) Enzyme extracts from P. putida, B. megaterium, and P. aeruginosa obtained as above were assayed as above at pH 9 in 50 mM of Tris/HCl using 30 mM of R,S-1-phenyl-3-aminobutane, with and without 100 mM of sodium pyruvate. The following relative rates of conversion were observed.
(§5) The transaminase nature of the enzymatic action is apparent from the effect of "suicide inactivators" known to be specific for transaminases {see, for example, Burnett et al., J. Bio. Chem., 225, 428-432 (1980)}, the inactivator (0.5 mM) being preincubated with the assay medium before addition of R,S-1-phenyl-3-aminobutane.
(§6) The stereoselectivity of the omega-amino acid transaminase can be seen from the corresponding assay utilizing 15 mM of R-1-phenyl-3-aminobutane (with pyruvate).

[4] = test system: omega-amino acid transaminase; assay: standardized omega-amino acid transaminase activity assay, P. putida enzyme; format: biochemical, Pseudomonas putida
Protocol: as §1, §2, §3
Pseudomonas putida ATCC 39213 was cultured as described in Example 1 and an enzyme extract then was obtained as therein described. The specific activity of the omega-amino acid transaminase was 0.045 units/mg.
as §4, §5, §6

[5] = molecular target: T1, omega-amino acid transaminase (Pseudomonas aeruginosa, UniProt Q9I700); assay: standardized omega-amino acid transaminase activity assay, P. aeruginosa enzyme; format: biochemical
T1 construct: cell extracts containing the omega-amino acid transaminase then are obtained as therein described; host or cells: Pseudomonas aeruginosa ATCC 15692, cell extract
T1 sequence (Q9I700 1-448): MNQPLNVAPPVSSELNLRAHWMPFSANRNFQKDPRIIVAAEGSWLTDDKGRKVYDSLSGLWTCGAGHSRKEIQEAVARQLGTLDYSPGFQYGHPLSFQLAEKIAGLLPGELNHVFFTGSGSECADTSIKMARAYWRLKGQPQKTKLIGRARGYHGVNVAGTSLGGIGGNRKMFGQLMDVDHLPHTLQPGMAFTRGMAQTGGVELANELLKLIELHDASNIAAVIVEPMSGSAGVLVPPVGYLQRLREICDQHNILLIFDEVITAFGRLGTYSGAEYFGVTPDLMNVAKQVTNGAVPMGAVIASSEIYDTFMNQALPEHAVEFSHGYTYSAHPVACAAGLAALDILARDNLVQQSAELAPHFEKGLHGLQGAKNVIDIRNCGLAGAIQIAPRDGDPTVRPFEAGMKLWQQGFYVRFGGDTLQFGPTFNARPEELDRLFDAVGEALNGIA

[6] = test system: omega-amino acid transaminase; assay: relative rates of conversion of 1-phenyl-3-aminobutane with different amino acceptors in place of pyruvate; format: biochemical; details: for Relative Rate of Conversion: substrate 1-phenyl-3-aminobutane
Protocol: as §1, §2, §3
The following procedure exemplifies the relative rates of conversion with 1-phenyl-3-aminobutane employing different amino acceptors in place of pyruvate in the assay described above.

[7] = solvent-to-aqueous phase partition coefficient of the ketone; format: physicochemical; details: heptane as organic solvent
Text: The organic solvent will normally be one in which the ketone produced is soluble to a greater degree than in water. Solvents in which the ketone has a solvent-to-aqueous phase partition coefficient greater than one are suitable and those with coefficients greater than 8 are preferred. Examples of these are liquid hydrocarbons such as benzene or hexane, halogenated hydrocarbons such as chloroform, dichloromethane or, carbon tetrachloride, various fluorocarbons such as freon, long-chain alcohols such as octanol or decanol, esters such as ethyl acetate, or triglyceride oils, A solvent which typifies this is heptane which has a partition coefficient of ≈24. Supercritical fluids such as supercritical CO2 may also be used.

[8] = test system: omega-amino acid transaminase; assay: rate of immobilized enzyme reaction with added benzylacetone; format: biochemical, Bacillus megaterium; details: 80 mM R,S-1-phenyl-3-aminobutane, 60 mM glyoxylate, pH 6.5
Protocol: Immobilization: A 47 mm diameter […] (FMC Corp.) support matrix (0.4 g) was loaded into a housing (Millipore Sweenex) fitted with inlet and outlet tubing, a peristaltic pump, and reservoir. The matrix was washed sequentially, at ambient temperatures and a rate of 3 ml/min., with (1) 200 ml of 50 mM of phosphate buffer (pH 7) containing 0.5 mM pyridoxal phosphate over a period of 20 min., (2) 11 ml of a 4.6 mg/ml solution of enzyme obtained in the manner of Example 1 for 120 min., (3) 150 ml of 0.3 M sodium chloride in 50 mM of phosphate buffer (pH 7) containing 0.5 mM pyridoxal phosphate for 30 minutes, and (4) 200 ml of 50 mM of phosphate buffer (pH 7) containing 0.5 mM pyridoxal phosphate over a period of 20 min.
A solution of omega-amino acid transaminase was immobilized onto a matrix according to the methods in Example 16. Four independent 200 milliliter substrate solutions containing 80 mM of R,S-1-phenyl-3-aminobutane, 60 mM glyoxylate, 0.1 mM pyridoxal phospate, and 50 mM potassium phosphate (pH 6.5) were prepared. Benzylacetone in concentrations of 0.50 mM, 0.85 mM, 1.45 mM, and 2.55 mM, respectively, were added to the four substrate solutions and these were pumped through the immobilized enzyme matrix. The rate of the enzyme catalyzed reaction was measured in micromoles/minute.

[9] = inactivator 0.5 mM preincubated before addition of R,S-1-phenyl-3-aminobutane, None = 100
[10] = stereoselectivity: 15 mM R-1-phenyl-3-aminobutane versus R,S-, with pyruvate
[11] = general statement of the description

CCCCCCC(C)N (centres unmarked) [2-aminooctane]
Relative Rate of Conversion R-enantiomer ([1]; amine (R,S) 5 mM): 0
Relative Rate of Conversion S-enantiomer ([1]; amine (R,S) 5 mM): 100

CCC(N)c1ccccc1 (centres unmarked) [1-phenyl-1-aminopropane]
Relative Rate of Conversion R-enantiomer ([1]; amine (R,S) 20 mM): 11
Relative Rate of Conversion S-enantiomer ([1]; amine (R,S) 20 mM): 100

CC[C@@H](C)N [R-2-aminobutane]
Specific Activity (units/mg) Acetate (Bacillus megaterium): 0.13 units/mg
Specific Activity (units/mg) Succinate (Bacillus megaterium): 0.06 units/mg

NCCCC(=O)O [-aminobutyrate]
activity of β-alanine transaminase on the substrate (β-alanine transaminase): 43
activity of -aminobutyrate transaminase on the substrate [2]: 100

NC1C=CC=C(C(=O)O)C1 (centres unmarked) [Gabaculine, reference compound]
Relative Rate of Conversion B. megaterium [3, 9]: 13
Relative Rate of Conversion P. putida [4, 9]: 0

CC(N)CCc1ccccc1 (racemic) [R,S-1-phenyl-3-aminobutane]
Relative Rate of Conversion B. megaterium [3, 10]: 100
Relative Rate of Conversion P. aeruginosa [5, 10]: 100
Relative Rate of Conversion P. putida [4, 10]: 100
Specific Activity (units/mg) Acetate (Bacillus megaterium): 0.33 units/mg
Specific Activity (units/mg) Gluconate (Bacillus megaterium; 40 mM gluconate as carbon source): 0.26 units/mg
Specific Activity (units/mg) Glucose (Bacillus megaterium; 40 mM glucose as carbon source): 0.62 units/mg
Specific Activity (units/mg) Succinate (Bacillus megaterium): 0.28 units/mg
Relative Rate of Conversion R-enantiomer ([1]; amine (R,S) 30 mM): 5
Relative Rate of Conversion S-enantiomer ([1]; amine (R,S) 30 mM): 100

CC(N)Cc1ccccc1 (centres unmarked) [3-phenyl-2-aminopropane]
Relative Rate of Conversion R-enantiomer ([1]; amine (R,S) 10 mM): 100
Relative Rate of Conversion S-enantiomer ([1]; amine (R,S) 10 mM): 0
Relative Rate of Conversion R-enantiomer ([1]; amine (R,S) 15 mM): 7
Relative Rate of Conversion S-enantiomer ([1]; amine (R,S) 15 mM): 100

C[C@@H](N)CCc1ccccc1 [R-1-phenyl-3-aminobutane]
Relative Rate of Conversion B. megaterium [3, 10]: 15
Relative Rate of Conversion P. aeruginosa [5, 10]: 4
Relative Rate of Conversion P. putida [4, 10]: 3
Specific Activity (units/mg) Acetate (Bacillus megaterium): 0.26 units/mg
Specific Activity (units/mg) Succinate (Bacillus megaterium): 0.21 units/mg
conversion to 1-phenylbutan-3-one as a factor of that of the S-form [1, 11]: ≤ 0.05

CC(=O)c1ccccc1 [acetophenone]
relative rates ([6]; as amino acceptor, concentration not given): ≤ 10

CCCC=O [butyraldehyde]
Relative Rate of Conversion ([6]; amino acceptor 20 mM): 90

CCCCCCC [heptane]
partition coefficient (ketone, solvent-to-aqueous phase) [7]: ≈ 24

NC(CO)c1ccccc1 (centres unmarked) [phenylglycinol]
Relative Rate of Conversion R-enantiomer ([1]; amine (R,S) 10 mM): 100
Relative Rate of Conversion S-enantiomer ([1]; amine (R,S) 10 mM): 0

CC(N)c1ccc(Br)cc1 (centres unmarked) [1-(4-bromophenyl)-1-aminoethane]
Relative Rate of Conversion R-enantiomer ([1]; amine (R,S) 30 mM): 0
Relative Rate of Conversion S-enantiomer ([1]; amine (R,S) 30 mM): 100

O=C1CCCCC1 [cyclohexanone]
Relative Rate of Conversion ([6]; amino acceptor 25 mM): 23

CC(N)c1cccc2ccccc12 (stereo not drawn) [1-(α-naphthyl)1-aminoethane]
Relative Rate of Conversion R-enantiomer ([1]; amine (R,S) 10 mM): 0
Relative Rate of Conversion S-enantiomer ([1]; amine (R,S) 10 mM): 100

C[C@@H](N)c1ccc(Br)cc1 [R-1-amino-1-(4-bromophenyl)ethane]
conversion to the nonchiral ketone by the transaminase [1, 11]: unchanged

CC(N)c1ccc([N+](=O)[O-])cc1 (centres unmarked) [1-(4-nitrophenyl)-1-aminoethane]
Relative Rate of Conversion R-enantiomer ([1]; amine (R,S) 5 mM): 0
Relative Rate of Conversion S-enantiomer ([1]; amine (R,S) 5 mM): 100

CCCC(C)=O [2-pentanone]
Relative Rate of Conversion ([6]; amino acceptor 25 mM): 33

O=C1CCCC1 [cyclopentanone]
Relative Rate of Conversion ([6]; amino acceptor 25 mM): 12

NCCc1ccc(O)cc1 [tyramine]
Specific Activity (units/mg) Acetate (Bacillus megaterium): 0.24 units/mg

CC(N)CCCc1cccnc1 (centres unmarked) [5-(3-pyridyl)-2-aminopentane]
Relative Rate of Conversion R-enantiomer ([1]; amine (R,S) 5 mM): 0
Relative Rate of Conversion S-enantiomer ([1]; amine (R,S) 5 mM): 100

NCCC(=O)O [β-alanine]
activity of β-alanine transaminase on the substrate (β-alanine transaminase): 100
activity of -aminobutyrate transaminase on the substrate [2]: 3

O=CC(=O)O [glyoxalate]
Relative Rate of Conversion ([6]; amino acceptor 20 mM): 50

CC=O [acetaldehyde]
Relative Rate of Conversion ([6]; amino acceptor 20 mM): 50

CC(N)c1ccccc1 (racemic) [R,S-1-phenyl-1-aminoethane]
Specific Activity (units/mg) Acetate (Bacillus megaterium): 0.39 units/mg
Specific Activity (units/mg) Succinate (Bacillus megaterium): 0.27 units/mg
Relative Rate of Conversion R-enantiomer ([1]; amine (R,S) 10 mM): 0
Relative Rate of Conversion S-enantiomer ([1]; amine (R,S) 10 mM): 100

O=Cc1ccccc1 [benzaldehyde]
Relative Rate of Conversion ([6]; amino acceptor 25 mM): 17

C[C@@H](N)c1ccccc1 [R-1-phenyl-1-aminoethane]
Specific Activity (units/mg) Acetate (Bacillus megaterium): 0.36 units/mg
Specific Activity (units/mg) Succinate (Bacillus megaterium): 0.27 units/mg
conversion to the nonchiral ketone by the transaminase [1, 11]: unchanged

CCC(C)N (racemic) [R,S-2-aminobutane]
Specific Activity (units/mg) Acetate (Bacillus megaterium): 0.14 units/mg
Specific Activity (units/mg) Succinate (Bacillus megaterium): 0.13 units/mg

CCC=O [propionaldehyde]
Relative Rate of Conversion ([6]; amino acceptor 20 mM): 100

CCCCCCC=O [heptaldehyde]
Relative Rate of Conversion ([6]; amino acceptor 25 mM): 80

CC(=O)CCc1ccccc1 [benzylacetone]
ENZYME ACTIVITY ([8]; benzylacetone 0.50 mM): 11.2 µM/min
ENZYME ACTIVITY ([8]; benzylacetone 0.85 mM): 9.5 µM/min
ENZYME ACTIVITY ([8]; benzylacetone 1.45 mM): 8.1 µM/min
ENZYME ACTIVITY ([8]; benzylacetone 2.55 mM): 6.1 µM/min

CCC(C)=O [butan-2-one]
Relative Rate of Conversion ([6]; amino acceptor 20 mM): 20

NO [Hydroxylamine, reference compound]
Relative Rate of Conversion B. megaterium [3, 9]: 10
Relative Rate of Conversion P. aeruginosa [5, 9]: 0
Relative Rate of Conversion P. putida [4, 9]: 3

Reference: US5169780A, “Enantiomeric enrichment and stereoselective synthesis of chiral amines” (Celgene Corporation, priority 1990, dated 1992)
